Patent US12286405B2, “Scalable synthesis of dual-target inhibitor of cannabinoid-1 receptor and inducible nitric oxide synthase” (THE UNITED STATES OF AMERICA, AS REPRESENTED BY THE …, priority 2019, dated 2025)
In brackets after ≈: the same amount, converted by molar mass.

Experiments:
[1] = solubility of rac-1 in organic solvent (dichloromethane); format: physicochemical; conditions: organic solvent or mixture
Text: To overcome this obstacle, the present inventors discovered an enantioselective approach to (S,1E,NE)-N-(1-aminoethylidene)-3-(4-chlorophenyl)-4-phenyl-N′-((4-(trifluoromethyl)phenyl)sulfonyl)-4,5-dihydro-1H-pyrazole-1-carboximidamide (S)-1 in high optical purity.

CB1R = CB1R (Homo sapiens, UniProt P21554); conditions: in vivo; mediated by the CB1R antagonism; cited from earlier work
[2] = test system: animal models of fibrosis; conditions: mediated by iNOS inhibition and CB1R antagonism; cited from earlier work

Sequence of CB1R (P21554 whole entry): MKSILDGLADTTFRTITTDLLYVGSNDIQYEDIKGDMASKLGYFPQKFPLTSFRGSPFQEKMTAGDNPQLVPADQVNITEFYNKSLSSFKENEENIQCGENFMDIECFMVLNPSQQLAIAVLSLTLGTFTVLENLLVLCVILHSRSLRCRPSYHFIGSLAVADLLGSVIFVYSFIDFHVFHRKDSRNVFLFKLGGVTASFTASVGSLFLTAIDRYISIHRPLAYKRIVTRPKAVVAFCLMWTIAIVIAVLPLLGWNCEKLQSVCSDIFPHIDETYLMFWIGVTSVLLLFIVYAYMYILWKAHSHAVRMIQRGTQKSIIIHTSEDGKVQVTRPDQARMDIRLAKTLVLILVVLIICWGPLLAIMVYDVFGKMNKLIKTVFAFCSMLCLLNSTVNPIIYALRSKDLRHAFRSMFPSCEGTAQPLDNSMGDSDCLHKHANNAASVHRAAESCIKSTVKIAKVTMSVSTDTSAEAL

Row | SMILES | solubility [1] [µg/mL] | food intake (CB1R) | antifibrotic effect [2]
1 | C/C(N)=N\C(=N/S(=O)(=O)c1ccc(C(F)(F)F)cc1)N1CC(c2ccccc2)C(c2ccc(Cl)cc2)=N1 (racemic) [rac-1, (1E,NE)-N-(1-aminoethylidene)-3-(4-chlorophenyl)-4-phenyl-N′-((4-(trifluoromethyl)phenyl)sulfonyl)-4,5-dihydro-1H-pyrazole-1-carboximidamide] | ~1000 (≈ 1820 µM) | – | –
2 | C/C(N)=N\C(=N\S(=O)(=O)c1ccc(C(F)(F)F)cc1)N1C[C@H](c2ccccc2)C(c2ccc(Cl)cc2)=N1 [(S)-1, (S,1E,NE)-N-(1-aminoethylidene)-3-(4-chlorophenyl)-4-phenyl-N′-((4-(trifluoromethyl)phenyl)sulfonyl)-4,5-dihydro-1H-pyrazole-1-carboximidamide] | – | reduction of food intake | antifibrotic effect
